Consider seven molecules from PubChem BioAssay (NCI).

Several values for one entry are separate records, joined by “and”; a condition that tells them apart may be missing. Equal entries are not always repeated.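 Grown in 96-well plates, cells were treated for 48 hours with each compound at five concentrations. Insufficient inhibition: endpoint recorded as highest concentration tested. GI50 = concentration required for 50% inhibition of growth. TGI: total growth inhibition.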

Holding throughout (assay): growth of human tumour cells (NCI), 48 h
Assay [1] relates to CCRF-CEM leukemia.
Assay [2] deals with HOP-92 NSCLC.
Assay [3] has as its system SK-OV-3 ovarian.
Assay [4] relates to MOLT-4 leukemia.
In assay [5] the test system is A549 NSCLC.
The test system of assay [6] is DU-145 prostate.
Assay [7] deals with HOP-62 NSCLC.
Assay [8] concerns SW-620 colon.
Assay [9] has as its system PC-3 prostate.
For assay [10], the system named is RXF 393 renal.

For `CC(=O)/C(=C\c1c(-c2ccccc2)[nH]c2ccccc12)S(=O)(=O)c1ccccc1`, the GI50 in [1] was 1.4 µM; in assay [2], 3.66 µM; in assay [3] it was 2.81 µM; in [4], 1.35 µM; in [5] it was 6.73 µM; in assay [6], 2.94 µM. Besides, the GI50 in assay [7] was 1.18 µM; in assay [8] it was 0.73 µM; in assay [9], 2.44 µM; in assay [10], 1.25 µM. Further, the TGI in assay [1] worked out at 4.78 µM; in assay [2], 15.4 µM; in [3], 19.4 µM; in assay [4], 6.39 µM; in assay [5] it was 41.9 µM; in [6], 9.31 µM. The TGI in assay [7] came to 3.03 µM; in assay [8], 7.14 µM; in [9] it was 15 µM; in [10] it was 2.8 µM.
In the case of `CN(C)CCNc1nc2ccccc2c2occc12`, the GI50 was 20.9 µM in [1]; 54.1 µM in assay [2]; 85.1 µM in assay [3]; 20.3 µM in [4]; 44.7 µM in assay [5]; 32 µM in [6]. For the same molecule, the GI50 in assay [7] was 96.2 µM; in assay [8], 63.4 µM; in assay [9], 36 µM; in [10], 31.6 µM. The TGI in assay [1], in assay [2], in [3], in [4], in [5] and in [6] was more than 100 µM each time. In addition, the TGI in assay [7] is more than 100 µM; in [8], more than 100 µM; in assay [9] it was more than 100 µM; in assay [10] it was 86.2 µM.
For the molecule `O=C(c1ccccc1O)c1[nH]c(Cl)c(Cl)c1-n1c(C(=O)c2ccccc2O)cc(Cl)c1Cl`, the GI50 was 0.467 µM and 0.382 µM in assay [1]; 0.224 µM and 0.155 µM in assay [2]; 1.86 µM and 2.31 µM in [3]; 1.7 µM and 0.798 µM in assay [4]; 2.69 µM and 1.8 µM in assay [5]; 2.25 µM and 1.81 µM in assay [6]. The GI50 in assay [7] is 2.14 µM and 3.49 µM; in assay [8], 0.869 µM and 0.716 µM; in assay [9], 0.411 µM and 0.276 µM; in assay [10], 1.09 µM and 0.754 µM. Besides, the TGI in assay [1] is 16.9 µM and 12.2 µM; in assay [2], 0.94 µM and 0.587 µM; in assay [3], 7.11 µM and 13.1 µM; in assay [4], 14.4 µM and 5.74 µM; in assay [5] it was 10.9 µM and 14.6 µM; in assay [6], 16.3 µM and 16.6 µM. In addition, the TGI in [7] is 6.49 µM and 17.2 µM; in assay [8] it was 13.2 µM and 12.7 µM; in assay [9], 9.21 µM and 2.37 µM; in assay [10], 9.12 µM and 6.72 µM.
For `CC12CCC(O)CC1=CCC1C2CCC2(C)C(c3cccnc3)=CCC12` (stereo not given), the GI50 is more than 100 µM in assay [1]; 43 µM in assay [2]; more than 100 µM in assay [3]; more than 100 µM in [4]; more than 100 µM in assay [5]; more than 100 µM in [6]. For the same molecule, the GI50 in assay [7] was more than 100 µM; in assay [8] it was more than 100 µM; in assay [9], more than 100 µM; in assay [10] it was 40.2 µM. Moreover, the TGI in assay [1], in [2], in assay [3], in assay [4], in [5] and in assay [6] was more than 100 µM each time. Besides, the TGI in [7], in assay [8], in assay [9] and in assay [10] was more than 100 µM each time.
On to `CN1CCN(c2ccc(C(=O)Nc3cccc(C#Cc4cccc5[nH]nc(N)c45)c3)cc2C(F)(F)F)CC1`, for which the GI50 in [1] was 1.16 µM; in assay [2] it was 1.02 µM; in assay [3] it was 1.62 µM; in assay [4], 0.645 µM; in assay [5], 0.767 µM; in assay [6] it was 1.08 µM. The GI50 is 0.792 µM in [7], 0.608 µM in assay [8], 0.953 µM in [9] and 0.799 µM in assay [10]. For the same molecule, the TGI in assay [1] worked out at 4.6 µM; in assay [2], 4.07 µM; in [3] it was 5.34 µM; in assay [4], 1.57 µM; in assay [5] it was 2.02 µM; in [6], 3.2 µM. Further, the TGI in assay [7] is 2.19 µM; in assay [8], 1.26 µM; in assay [9], 7.92 µM; in [10], 2.31 µM.
In the case of `COc1ccc2[nH]c(O)c(/C=c3/ccc4c(c3)N=C(c3ccc(F)cc3)N=4)c2c1`, the GI50 in assay [1] was 4.14 µM; in [2] it was 2.06 µM; in assay [3] it was 2.62 µM; in assay [4] it was 13.9 µM; in [5] it was 3.11 µM; in assay [6], 2.23 µM. The GI50 is 1.93 µM in assay [7], 4.34 µM in assay [8], 4.64 µM in [9] and 1.95 µM in assay [10]. For the same molecule, the TGI is more than 100 µM in [1]; 8.75 µM in assay [2]; 6.06 µM in assay [3]; more than 100 µM in assay [4]; more than 100 µM in assay [5]; 6.87 µM in assay [6]. Further, the TGI in assay [7] was 3.91 µM; in [8], more than 100 µM; in assay [9], 88.6 µM; in assay [10] it was 4.06 µM.
As for `Nc1cc2nc3ccccc3oc-2cc1=O`, the GI50 in [1] was 13.4 µM; in assay [2], more than 45 µM; in assay [3] it was 19.7 µM; in assay [4], 10.1 µM; in assay [5] it was 1.66 µM; in [6], 1.57 µM. Further, the GI50 is 2.94 µM in [7], 1.91 µM in assay [8], 16.7 µM in [9] and 5.07 µM in assay [10]. The TGI in assay [1] was more than 64.9 µM; in assay [2], more than 100 µM; in assay [3], more than 61.4 µM; in [4], more than 63.2 µM; in [5] it was 3.84 µM; in assay [6], 2.98 µM. For the same molecule, the TGI in assay [7] was 6.64 µM; in assay [8] it was 5.08 µM; in [9] it was more than 100 µM; in assay [10], 14.2 µM.
